Molecular target: T1, GFRα1-RET (Homo sapiens, UniProt P56159)
T1 construct: expressed in transfected cells; host or cells: MG87 murine fibroblasts, stably transfected
T1 sequence (P56159 25-429 limits assumed): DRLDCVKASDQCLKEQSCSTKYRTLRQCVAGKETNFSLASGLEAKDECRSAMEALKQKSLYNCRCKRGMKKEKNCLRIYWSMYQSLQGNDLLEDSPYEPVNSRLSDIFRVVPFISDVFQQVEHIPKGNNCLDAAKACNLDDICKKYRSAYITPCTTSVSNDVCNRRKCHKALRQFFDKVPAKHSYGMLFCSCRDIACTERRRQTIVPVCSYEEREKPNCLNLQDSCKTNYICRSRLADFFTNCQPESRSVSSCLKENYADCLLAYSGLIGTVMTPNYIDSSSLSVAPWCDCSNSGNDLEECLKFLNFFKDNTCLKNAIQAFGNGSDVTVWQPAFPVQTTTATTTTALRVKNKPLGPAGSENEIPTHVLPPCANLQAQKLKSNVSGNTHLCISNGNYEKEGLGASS
Assay: Elk1 reporter-gene (luciferase) assay in cells expressing GFRα1-RET
Type: cell-based
Details: MG87 murine fibroblasts stably transfected with PathDetect Elk-1, GFRα1 and RET, 6 concentrations, agonist/activator activity
Protocol: For ECso determination, a dose-response test was performed using 6 concentrations of each tested compound. Dose-response curves were fitted using the sigmoidal dose-response (variable slope) analysis in GraphPad Prism program (Graph Pad Inc) and ECso of agonist/activator activity was calculated. Dose-response experiments were all performed in duplicate, two times independently.

Structure (SMILES) | EC50
CCCN(C)S(=O)(=O)c1ccc(OC)c(N2CCN(C(=O)c3ccc(F)cc3Cl)CC2C)c1 (racemic) [compound 001, 4-methoxy-N-methyl-N-propyl-3-[rac-(2S)-4-(2-chloro-4-fluoro-benzoyl)-2-methyl-piperazin-1-yl]benzenesulfonamide] | 1000 to 10000 nM
COc1ccc(S(=O)(=O)N2CCCC(Cc3ccccc3)C2)cc1N1C2CCC1CN(C(=O)c1ccc(F)cc1Cl)C2 (racemic) [compound 011, [(1S,5R)-8-[5-[[(3RS)-3-benzyl-1-piperidyl]sulfonyl]-2-methoxy-phenyl]-3,8-diazabicyclo[3.2.1]]octan-3-yl]-(2-chloro-4-fluoro-phenyl)methanone] | < 1000 nM
CCCN(C)S(=O)(=O)c1ccc(OC)c(N2CCN(C(=O)c3ccc(F)cc3C(F)(F)F)CC2C(F)(F)F)c1 (racemic) [compound 016, 4-methoxy-N-methyl-N-propyl-3-[rac-(2S)-4-[4-fluoro-2-(trifluoromethyl)benzoyl]-2-(trifluoromethyl)piperazin-1-yl]benzenesulfonamide] | 1000 to 10000 nM
CCCN(C)S(=O)(=O)c1ccc(OC)c(N2CCN(C(=O)c3ccc(F)cc3C(F)(F)F)CC2CC)c1 (racemic) [compound 017, 4-methoxy-N-methyl-N-propyl-3-[rac-(2S)-2-ethyl-4-[4-fluoro-2-(trifluoromethyl)benzoyl]piperazin-1-yl]benzenesulfonamide] | 10000 to 50000 nM
COc1ccc(S(=O)(=O)N2CCC(Cc3ccccc3)CC2)cc1N1CCN(C(=O)c2ccc(F)cc2C(F)(F)F)CC1C (racemic) [compound 018, [4-fluoro-2-(trifluoromethyl)phenyl]-[rac-(3S)-4-[5-[(4-benzyl-1-piperidyl)sulfonyl]-2-methoxy-phenyl]-3-methyl-piperazin-1-yl]methanone] | 1000 to 10000 nM
COc1ccc(S(=O)(=O)N2CCC(Cc3ccccc3)CC2)cc1N1CCN(C(=O)c2ccc(F)cc2Cl)CC1C (racemic) [compound 019, (2-chloro-4-fluoro-phenyl)-[rac-(3S)-4-[5-[(4-benzyl-1-piperidyl)sulfonyl]-2-methoxy-phenyl]-3-methyl-piperazin-1-yl]methanone] | < 1000 nM
COc1ccc(S(=O)(=O)NC(C)(C)C)cc1N1CCN(C(=O)c2ccc(F)cc2Cl)CC1C (racemic) [compound 020, N-tert-butyl-4-methoxy-3-[rac-(2S)-4-(2-chloro-4-fluoro-benzoyl)-2-methyl-piperazin-1-yl]benzenesulfonamide] | 10000 to 50000 nM
CCCN(C)S(=O)(=O)c1ccc(OC)c(N2CCN(C(=O)c3ccc(F)cc3C(F)(F)F)CC2C)c1 (racemic) [compound 021, 4-methoxy-N-methyl-N-propyl-3-[rac-(2S)-4-[4-fluoro-2-(trifluoromethyl)benzoyl]-2-methyl-piperazin-1-yl]benzenesulfonamide] | 1000 to 10000 nM
CCCN(C)S(=O)(=O)c1ccc(OC)c(N2CCN(C(=O)c3ccc(F)cc3C(F)(F)F)CC2COC)c1 (racemic) [compound 022, 4-methoxy-N-methyl-N-propyl-3-[rac-(2R)-4-[4-fluoro-2-(trifluoromethyl)benzoyl]-2-(methoxymethyl)piperazin-1-yl]benzenesulfonamide] | 10000 to 50000 nM
COc1ccc(S(=O)(=O)N2CCC(Cc3ccccc3)CC2)cc1N1C2CCC1CN(C(=O)c1ccc(F)cc1Cl)C2 (racemic) [compound 025, (2-chloro-4-fluoro-phenyl)-[rac-(1S,5S)-8-[5-[(4-benzyl-1-piperidyl)sulfonyl]-2-methoxy-phenyl]-3,8-diazabicyclo[3.2.1]]octan-3-yl]methanone] | 1000 to 10000 nM
COc1ccc(S(=O)(=O)N2CCC(OCc3ccccc3)C2)cc1N1C2CCC1CN(C(=O)c1ccc(F)cc1Cl)C2 (racemic) [compound 037, [(1S,5R)-8-[5-[(3SR)-3-benzyloxypyrrolidin-1-yl]sulfonyl-2-methoxy-phenyl]-3,8-diazabicyclo[3.2.1]octan-3-yl]-(2-chloro-4-fluoro-phenyl)methanone] | 1000 to 10000 nM
COc1ccc(S(=O)(=O)N(C)CCCF)cc1N1CCN(C(=O)c2ccc(F)cc2Cl)CC1C (racemic) [compound 038, N-(3-fluoropropyl)-4-methoxy-N-methyl-3-[rac-(2S)-4-(2-chloro-4-fluoro-benzoyl)-2-methyl-piperazin-1-yl]benzenesulfonamide] | 1000 to 10000 nM
COc1ccc(S(=O)(=O)N2CCN([C@H]3C[C@@H]3c3ccc(F)cc3)CC2)cc1N1[C@@H]2CC[C@H]1CN(C(=O)c1ccc(F)cc1Cl)C2 (racemic) [compound 044, (2-chloro-4-fluoro-phenyl)-[(1S,5R)-8-[5-[4-[(1SR,2RS)-2-(4-fluorophenyl)cyclopropyl]piperazin-1-yl]sulfonyl-2-methoxy-phenyl]-3,8-diazabicyclo[3.2.1]octan-3-yl]methanone] | < 1000 nM
COc1ccc(S(=O)(=O)N2CCN(CC(C)c3ccc(F)cc3)CC2)cc1N1C2CCC1CN(C(=O)c1ccc(F)cc1Cl)C2 (racemic) [compound 045, (2-chloro-4-fluoro-phenyl)-[(1S,5R)-8-[5-[4-[(2RS)-2-(4-fluorophenyl)propyl]piperazin-1-yl]sulfonyl-2-methoxy-phenyl]-3,8-diazabicyclo[3.2.1]octan-3-yl]methanone] | < 1000 nM
COc1ccc(S(=O)(=O)N2CCN(CC(C)c3ccccc3)CC2)cc1N1C2CCC1CN(C(=O)c1ccc(F)cc1Cl)C2 (racemic) [compound 047, (2-chloro-4-fluoro-phenyl)-[(1S,5R)-8-[2-methoxy-5-[4-[(2RS)-2-phenylpropyl]piperazin-1-yl]sulfonyl-phenyl]-3,8-diazabicyclo[3.2.1]octan-3-yl]methanone] | < 1000 nM
CC(NS(=O)(=O)c1cc(Cl)c(O)c(N2C3CCC2CN(C(=O)c2ccc(F)cc2Cl)C3)c1)C(F)(F)F (racemic) [compound 104, 3-chloro-5-[(1S,5R)-3-(2-chloro-4-fluoro-benzoyl)-3,8-diazabicyclo[3.2.1]octan-8-yl]-4-hydroxy-N-[(1SR)-2,2,2-trifluoro-1-methyl-ethyl]benzenesulfonamide] | 1000 to 10000 nM
COc1ccc(S(=O)(=O)N2CCC(Oc3ccccc3)C2)cc1N1C2CCC1CN(C(=O)c1ccc(F)cc1Cl)C2 (racemic) [compound 126, (2-chloro-4-fluoro-phenyl)-[(1S,5R)-8-[2-methoxy-5-[(3SR)-3-phenoxypyrrolidin-1-yl]sulfonyl-phenyl]-3,8-diazabicyclo[3.2.1]octan-3-yl]methanone] | < 1000 nM
COc1ccc(S(=O)(=O)N2CCC(N(C)c3ccccc3)C2)cc1N1C2CCC1CN(C(=O)c1ccc(F)cc1Cl)C2 (racemic) [compound 127, (2-chloro-4-fluoro-phenyl)-[(1S,5R)-8-[2-methoxy-5-[(3SR)-3-(N-methylanilino)pyrrolidin-1-yl]sulfonyl-phenyl]-3,8-diazabicyclo[3.2.1]octan-3-yl]methanone] | < 1000 nM
COc1ccc(S(=O)(=O)N2CCN(CC(O)c3ccc(F)cc3)CC2)cc1N1C2CCC1CN(C(=O)c1ccc(F)cc1Cl)C2 (racemic) [compound 128, (2-chloro-4-fluoro-phenyl)-[(1S,5R)-8-[5-[4-[(2RS)-2-(4-fluorophenyl)-2-hydroxy-ethyl]piperazin-1-yl]sulfonyl-2-methoxy-phenyl]-3,8-diazabicyclo[3.2.1]octan-3-yl]methanone] | < 1000 nM
COc1ccc(S(=O)(=O)NC(C)(C)C)cc1N1[C@@H]2CC[C@H]1CN(C(=O)c1ccc(F)cc1Cl)C2 [compound 002] | 1000 to 10000 nM
CCCN(C)S(=O)(=O)c1ccc(OC)c(N2[C@@H]3CC[C@H]2CN(C(=O)c2ccc(F)cc2Cl)C3)c1 [compound 003] | 1000 to 10000 nM
COc1ccc(S(=O)(=O)N2CCCC2)cc1N1[C@@H]2CC[C@H]1CN(C(=O)c1ccc(F)cc1Cl)C2 [compound 004, (2-chloro-4-fluoro-phenyl)-[(1S,5R)-8-(2-methoxy-5-pyrrolidin-1-ylsulfonyl-phenyl)-3,8-diazabicyclo[3.2.1]octan-3-yl]methanone] | 1000 to 10000 nM
COc1ccc(S(=O)(=O)N(C)CC2CC2)cc1N1[C@@H]2CC[C@H]1CN(C(=O)c1ccc(F)cc1Cl)C2 [compound 005, 3-[(1S,5R)-3-(2-chloro-4-fluoro-benzoyl)-3,8-diazabicyclo[3.2.1]octan-8-yl]-N-(cyclopropylmethyl)-4-methoxy-N-methyl-benzenesulfonamide] | < 1000 nM
COc1ccc(S(=O)(=O)N2CCC(F)CC2)cc1N1[C@@H]2CC[C@H]1CN(C(=O)c1ccc(F)cc1Cl)C2 [compound 006] | 1000 to 10000 nM
COc1ccc(S(=O)(=O)N2CCC(C(F)(F)F)CC2)cc1N1[C@@H]2CC[C@H]1CN(C(=O)c1ccc(F)cc1Cl)C2 [compound 007, (2-chloro-4-fluoro-phenyl)-[(1S,5R)-8-[2-methoxy-5-[[4-(trifluoromethyl)-1-piperidyl]sulfonyl]phenyl]-3,8-diazabicyclo[3.2.1]octan-3-yl]methanone] | < 1000 nM
COc1ccc(S(=O)(=O)N2CCC(=Cc3ccccc3)CC2)cc1N1[C@@H]2CC[C@H]1CN(C(=O)c1ccc(F)cc1Cl)C2 [compound 008, [(1S,5R)-8-[5-[(4-benzylidene-1-piperidyl)sulfonyl]-2-methoxy-phenyl]-3,8-diazabicyclo[3.2.1]octan-3-yl]-(2-chloro-4-fluoro-phenyl)methanone] | < 1000 nM
